How the values were obtained:
[1] = target: T1, human recombinant BTK C481S protein (Homo sapiens, UniProt Q06187, C481S); test: BTK C481S activity inhibition assay (HTRF in vitro kinase assay); format: biochemical; settings: 35 μM ATP, 1.5 ng/μL BTK C481S
T1 construct: made in house
Protocol: In vitro kinase assay was used to evaluate the effects of compounds of the present invention on BTK C481S activity (Table 1).
(§1) By using the homogeneous time-resolved fluorescence (HTRF) kinase detection kit (Cisbio, catalog number 62TK0PEC), the enzymatic activity of BTK C481S is determined by detecting the phosphorylation level of the substrate in the kinase reaction. The reaction buffer contains the enzyme reaction buffer (1×) from the kit, 5 mM MgCl2, 1 mM DTT, 10 nM SEB, and 0.01% Tween-20; the kinase reaction solution contains human recombinant BTK C481S protein (purified in-house) diluted to 1.5 ng/μL with the reaction buffer; the substrate reaction solution contains biotin-labeled tyrosine kinase substrate diluted to 0.5 μM with the reaction buffer and 35 μM ATP; the detection buffer contains Eu^3+-labeled cage antibody diluted to 0.05 ng/μL and streptavidin-labeled XL665 antibody diluted to 31.25 nM with the reaction buffer; the test compound is dissolved and diluted to 100 μM with DMSO, followed by a 4-fold serial dilution with DMSO to the lowest concentration of 6.1 nM and finally 40-time dilution with the reaction buffer for each concentration point. If the IC50 value of the compound is very low, the initial concentration of the compound is reduced.
(§2) Add 4 μL test compound solution and 2 μL kinase reaction solution to a 384-well detection plate (Corning, catalog number 3674), mix well and incubate at room temperature for 15 minutes; add 4 μL substrate reaction solution and incubate for 50 minutes; add 10 μL detection buffer, mix well and stand for 60 minutes; detect signal at 620 nm and 665 nm using an Envision plate reader (Perkin Elmer). The signal value (absorbance at 665 nm/absorbance at 620 nm) is positively correlated with the degree of phosphorylation of the substrate, thereby detecting the kinase activity of BTK C481S. In this experiment, the group without BTK is the negative control (100% inhibition) and the group with BTK C481 S but no compound is the positive control (0% inhibition). The inhibition curve is plotted and the corresponding IC50 value of the test compound is calculated using XLfit software (TD Business Solutions Ltd., UK).

[2] = target: T2, human-derived recombinant BTK protein (Homo sapiens, UniProt Q06187); test: BTK activity inhibition assay (HTRF in vitro kinase assay); format: biochemical; settings: 40 μM ATP, 0.2 ng/μL BTK
T2 construct: purchased Carna Biosciences 08-180
T2 sequence (Q06187 whole entry): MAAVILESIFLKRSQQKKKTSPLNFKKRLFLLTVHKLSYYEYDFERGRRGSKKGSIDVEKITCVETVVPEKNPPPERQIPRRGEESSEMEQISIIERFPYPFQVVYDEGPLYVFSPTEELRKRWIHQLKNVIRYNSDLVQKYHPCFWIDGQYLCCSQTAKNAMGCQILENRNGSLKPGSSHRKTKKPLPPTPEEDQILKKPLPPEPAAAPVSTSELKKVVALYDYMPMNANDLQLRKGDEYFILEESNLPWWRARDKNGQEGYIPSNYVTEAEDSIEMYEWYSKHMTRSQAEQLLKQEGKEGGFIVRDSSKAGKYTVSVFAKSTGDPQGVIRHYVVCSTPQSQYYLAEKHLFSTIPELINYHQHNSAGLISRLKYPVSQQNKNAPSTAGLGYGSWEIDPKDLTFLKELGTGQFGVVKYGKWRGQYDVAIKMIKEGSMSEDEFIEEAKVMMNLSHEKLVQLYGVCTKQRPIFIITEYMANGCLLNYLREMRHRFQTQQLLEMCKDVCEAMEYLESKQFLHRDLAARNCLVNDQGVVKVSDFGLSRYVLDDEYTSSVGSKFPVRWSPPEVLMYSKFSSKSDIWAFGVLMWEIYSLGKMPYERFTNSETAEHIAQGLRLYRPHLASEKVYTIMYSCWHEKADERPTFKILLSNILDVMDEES
Protocol: In vitro kinase assay was used to evaluate the effects of compounds of the present invention on BTK activity (Table 1).
as §1, with “BTK” for “BTK C481S”, “SEB” for “SEB,”, “human-derived” for “human”, “(Carna Biosciences, Catalog No. 08-180)” for “(purified in-house)”, “0.2” for “1.5”, “40” for “35”
as §2, with “BTK.” for “BTK C481S.”, “BTK” for “BTK C481 S”, “(ID” for “(TD”

T1 sequence (Q06187 whole entry C481S): as the sequence (Q06187 whole entry) above, with C481S counted along it

Compound	IC50 [1]	IC50 [2]
COc1ccc(F)cc1C(=O)NCc1ccc(-c2nc(C3(C(F)(F)F)CC3)n3ncnc(N)c23)cc1 [Compound 43, N-(4-(4-amino-7-(1-(trifluoromethyl)cyclopropyl)imidazo[5,1-f][1,2,4]triazin-5-yl)benzyl)-5-fluoro-2-methoxybenzamide]	5.4 nM	2.7 nM
COc1ccc(F)cc1C(=O)NCc1ccc(-c2nc(N3CCOCC3)n3ccnc(N)c23)cc1 [Compound 44, N-(4-(8-amino-3-morpholinoimidazo[1,5-a]pyrazin-1-yl)benzyl)-5-fluoro-2-methoxybenzamide]	7.1 nM	10 nM
COc1ccc(F)cc1C(=O)NCc1ccc(-c2nc(N3CCOCC3)n3ncnc(N)c23)cc1 [Compound 45, N-(4-(4-amino-7-morpholinoimidazo[5,1-f][1,2,4]triazin-5-yl)benzyl)-5-fluoro-2-methoxybenzamide]	2.6 nM	9.4 nM
COc1ccc(F)cc1C(=O)NCc1ccc(-c2nc([C@]3(C)CC[C@](C)(C(=O)O)CC3)n3ncnc(N)c23)cc1 [Compound 46, (1s,4s)-4-(4-amino-5-(4-((5-fluoro-2-methoxybenzamido)methyl)phenyl)imidazo[5,1-f][1,2,4]triazin-7-yl)-1,4-dimethylcyclohexane-1-carboxylic acid]	1.6 nM	7.7 nM
COc1ccc(F)cc1C(=O)NCc1ccc(-c2nc([C@]3(C)CC[C@@](C)(C(=O)O)CC3)n3ncnc(N)c23)cc1 [Compound 47, (1r,4r)-4-(4-amino-5-(4-((5-fluoro-2-methoxybenzamido)methyl)phenyl)imidazo[5,1-f][1,2,4]triazin-7-yl)-1,4-dimethylcyclohexane-1-carboxylic acid]	1.4 nM	1.3 nM
COc1ccc(F)cc1C(=O)NCc1ccc(-n2c(=O)n(C34CCC(C(=O)O)(CC3)CC4)c3ncnc(N)c32)cc1 [Compound 48, 4-(6-amino-7-(4-((5-fluoro-2-methoxybenzamido)methyl)phenyl)-8-oxo-7,8-dihydro-9H-purin-9-yl)bicyclo[2.2.2]octane-1-carboxylic acid]	8.2 nM	1.2 nM
COc1ccc(F)cc1C(=O)NCc1ccc(-n2c(=O)n([C@H]3CC[C@H](CO)CC3)c3ncnc(N)c32)cc1 [Compound 50, N-(4-(6-amino-9-((1r,4r)-4-(hydroxymethyl)cyclohexyl)-8-oxo-8,9-dihydro-7H-purin-7-yl)benzyl)-5-fluoro-2-methoxybenzamide]	20 nM	2.4 nM
COc1ccc(F)cc1C(=O)NCc1ccc(-n2c(=O)n(C3CCOCC3)c3ncnc(N)c32)cc1 [Compound 51, N-(4-(6-amino-8-oxo-9-(tetrahydro-2H-pyran-4-yl)-8,9-dihydro-7H-purin-7-yl)benzyl)-5-fluoro-2-methoxybenzamide]	9.2 nM	4 nM
COc1ccc(F)cc1C(=O)NCc1ccc(-n2c(=O)n(C3CCOCC3)c3ccnc(N)c32)cc1 [Compound 52, N-(4-(4-amino-2-oxo-1-(tetrahydro-2H-pyran-4-yl)-1,2-dihydro-3H-imidazo[4,5-c]pyridin-3-yl)benzyl)-5-fluoro-2-methoxybenzamide]	30 nM	7.2 nM
COc1ccc(F)cc1C(=O)NCc1ccc(-n2c(=O)n(C(C)C(F)(F)F)c3ncnc(N)c32)cc1 (stereo not shown) [Compound 53, N-(4-(6-amino-8-oxo-9-(1,1,1-trifluoropropan-2-yl)-8,9-dihydro-7H-purin-7-yl)benzyl)-5-fluoro-2-methoxybenzamide]	21 nM	5.6 nM
COc1ccc(F)cc1C(=O)NCc1ccc(-n2c(=O)n(C34CCC(C(=O)N5CCOCC5)(CC3)CC4)c3ncnc(N)c32)cc1 [Compound 54, N-(4-(6-amino-9-(4-(morpholine-4-carbonyl)bicyclo[2.2.2]octan-1-yl)-8-oxo-8,9-dihydro-7H-purin-7-yl)benzyl)-5-fluoro-2-methoxybenzamide]	6.1 nM	5.8 nM
